Source: patent US5877199A, “Heterocyclic compounds, their preparation and their therapeutic use” (priority 1994, dated 1999)

Biological target: T1, m1 muscarinic receptors (Homo sapiens, UniProt P11229)
T1 construct: expressed in transfected cells; host or cells: CHO (Chinese Hamster Ovary) cells, membranes
T1 sequence (P11229 1-460): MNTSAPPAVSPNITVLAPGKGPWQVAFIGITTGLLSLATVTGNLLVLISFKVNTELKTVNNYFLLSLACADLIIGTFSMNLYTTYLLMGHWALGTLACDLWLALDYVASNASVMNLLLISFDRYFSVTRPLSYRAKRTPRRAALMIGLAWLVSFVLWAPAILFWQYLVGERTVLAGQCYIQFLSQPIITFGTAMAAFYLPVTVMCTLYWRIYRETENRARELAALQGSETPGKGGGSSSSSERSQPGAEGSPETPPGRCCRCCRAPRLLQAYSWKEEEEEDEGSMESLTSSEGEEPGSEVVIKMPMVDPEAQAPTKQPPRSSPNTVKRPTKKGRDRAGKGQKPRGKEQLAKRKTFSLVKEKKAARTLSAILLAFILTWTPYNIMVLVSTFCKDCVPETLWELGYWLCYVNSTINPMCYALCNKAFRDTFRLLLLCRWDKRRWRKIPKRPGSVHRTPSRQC
Assay: Effect on ACh binding: ACh inhibition of 3H-NMS binding (indirect assay) on CHO cell membranes
Details: tested at 3 μg/ml; 0.15 nM 3H-NMS, 30 μM ACh, 0.2 mM GTP, pH 7.4, 30° C., two hours
Description: The compounds of the present invention may be assayed for allosteric activity at m1 muscarinic receptors as described below, although the assays we describe are not necessarily exhaustive, and other assays may be employed, as desired, to establish allosterism.
A suitable cell line is CHO (Chinese Hamster Ovary), which are readily engineered to express only one receptor sub-type.
To obtain the large amount of cell membranes required, plates of 530 cm^2 culture area were used. CHO cells which express m1, m2, m3 and m4 receptors were grown separately in MEM alpha medium containing 10% newborn calf serum and antibiotics. When cells reached confluence, they were washed twice with 10 ml of 20 mM HEPES containing 10 mM EDTA (pH 7.4), scraped into the same buffer and homogenized using a Polytron (trademark) homogenizer (setting 5-6 for 5 sec×2). Membrane pellets were obtained by centrifugation (40000×g, 10 min, 4° C.) and resuspended in 20 mM HEPES-0.1 mM EDTA (pH 7.4). Centrifugation and resuspension were repeated twice to wash the cell membranes. After measurement of membrane protein, the membranes (1 or 2 mg protein/ml) were stored at -70° C.
While the direct assay measures ACh (=acetylcholine) binding only to the high affinity state, the indirect assay measures effects only at the low affinity state. This is achieved by including 0.2 mM GTP in the assay. In this assay a fixed concentration of ^3 H-NMS (roughly the Kd value) is incubated in the absence and presence of a fixed concentration of ACh (at about the IC50 value) and the effects of three concentrations of test agent are measured, again in the absence and presence of ACh.
Calculating the effects on ^3 H-NMS binding alone is as follows: binding in the presence of the agent is expressed as a percentage of binding in its absence and, if the effect is inhibitory, an IC50 is estimated graphically. The assay also contains a single high concentration of ^3 H-NMS (4 nM, about 30 times the Kd) which provides an estimate of Bmax (i.e. maximum binding).
Expressing the effect on cold ACh binding will be explained with reference to FIGS. 1a, b and c. These figures show theoretical data and the effects of the transformations described below. In FIGS. 1a and 1b ^3 H-NMS and cold ACh are present at their Kd concentrations; in FIG. 1a the agent has a negative allosteric effect on ^3 H-NMS, while in FIG. 1b it has a positive allosteric effect on ^3 H-NMS. The left panels show the amount of ^3 H-NMS specifically bound in the assay. If the affinity of ACh is reduced by the test agent, as shown in the top panels of FIGS. 1a and 1b, the inhibition by ACh will decrease, but the counts recovered will also depend on the effect of the agent on ^3 H-NMS binding alone. To calculate the effect on ACh binding the inhibitory effect of ACh is first calculated as a percent of its own control in the absence of ACh. Next it is assumed that fractional inhibition is the same as tractional occupancy, and inhibition in the presence of agent is expressed as a percentage of inhibition in the absence of agent. The effects of these transformations are shown in the centre panels. Expressing inhibition by ACh in the presence of agent as a percentage of inhibition in the absence of agent allows the effect of the agent on cold ACh binding to be seen on the same scale as the effect on ^3 H-NMS and ^3 H-ACh binding and is generally preferred.
If the concentration of ^3 H-NMS used in the indirect assay is around the Kd value or less, the transformation described above provides a qualitative and semi-quantitative measure of the agent's effect. If a higher concentration of ^3 H-NMS is used, or if the agent has a positive allosteric effect on ^3 H-NMS, then the results of this transformation may be misleading. […] It is assumed that ACh binds to a single affinity state i.e. that its inhibition curve has a slope of 1, and so an IC50 is calculated from the percentage inhibition of control binding. […]

Row | SMILES | Effect on ACh Binding
1 | CC(C)Sc1c(CC(=O)O)cc(C(C)C)c2c3ccccc3n(Cc3ccccc3)c12 [Example 235, (9-Benzyl-4-isopropyl-1-isopropylthiocarbazol-2-yl)acetic Acid] | 2.82
2 | CCCc1cc(C(Cc2cccc([N+](=O)[O-])c2)C(=O)O)c(SC)c2c1c1ccccc1n2Cc1cccc([N+](=O)[O-])c1 (stereo not shown) [Example 172, 2-[1-Methylthio-9-(3-nitrobenzyl)-4-propylcarbazol-2-yl]-3-(3-nitrophenyl)propionic Acid] | 2.59
3 | O=C(O)CC1CCc2c(n(Cc3ccccc3)c3ccccc23)S1 (stereo not shown) [Example 83, 2-(9-Benzyl-2,3,4,9-tetrahydrothiopyrano[2,3-b]indol-2-yl) acetic acid] | 2.08
4 | CSc1c(CC(=O)O)cc(C)c2c3ccccc3n(CCCc3ccccc3)c12 [Example 214, [4-Methyl-1-methylthio-9-(3-phenylpropyl)carbazol-2-yl]acetic Acid] | 4.34
5 | CSc1c(CC(=O)O)ccc2c3ccccc3n(Cc3ccccc3)c12 [Example 5, (9-Benzyl-1-methylthiocarbazol-2-yl)acetic acid] | 2.62
6 | CSc1c(CC(=O)O)cc(C)c2c3ccccc3n(CCc3cccc(Cl)c3)c12 [Example 229, {9-[2-(3-Chlorophenyl)ethyl]-4-methyl-1-methylthiocarbazol-2-yl}acetic Acid] | 5.79
7 | CSc1c(CC(=O)O)ccc2c1c1ccccc1n2Cc1ccccc1 [Example 233, (9-Benzyl-4-methylthiocarbazol-3-yl)acetic Acid] | 2.26
8 | O=C(O)Cc1cccc2c1ccn2Cc1ccccc1 [Example 91, (1-Benzylindol-4-yl)acetic acid] | 2.76
9 | CSc1c(Cc2nnn[nH]2)cc(C)c2c3ccccc3n(Cc3ccccc3)c12 [Example 97, 5-[(9-Benzyl-4-methyl-1-methylthiocarbazol)-2-yl-methyl]-1H-tetrazole] | 4.97
10 | CSc1c(CC(=O)O)cc(C)c2c3ccccc3n(Cc3cccc(OCc4ccccc4)c3)c12 [Example 136, [9-(3-Benzyloxybenzyl)-4-methyl-1-methylthiocarbazol-2-yl]acetic Acid] | 2.36
11 | Cc1cc(CC(=O)O)c(SC(C)C)c2c1c1ccccc1n2Cc1ccccc1 [Example 218, (9-Benzyl-4-methyl-1-i-propylthiocarbazol-2-yl)acetic Acid] | 4.91
12 | CSc1c(CC(=O)O)cc(C)c2c3ccccc3n(Cc3ccc(Cl)c(Cl)c3)c12 [Example 149, [9-(3,4-Dichlorobenzyl)-4-methyl-1-methylthiocarbazol-2-yl]acetic Acid] | 6.49
13 | CSc1c(CC(=O)O)cc(C)c2c3ccccc3n(Cc3ccccc3)c12 [Example 14, (9-Benzyl-4-methyl-1-methylthiocarbazol-2-yl)acetic acid] | 3.89
14 | CCCOc1c(CC(=O)O)cc(C)c2c3ccccc3n(Cc3ccccc3)c12 [Example 132, (9-Benzyl-4-methyl-1-propoxycarbazol-2-yl)acetic Acid] | 2.68
15 | Cc1cc(CC(=O)O)c([S+](C)[O-])c2c1c1ccccc1n2Cc1ccccc1 (stereo not shown) [Example 200, (9-Benzyl-1-methylsulfinyl-4-methylcarbazol-2-yl)acetic Acid] | 3.59
16 | CCCSc1c(CC(=O)O)cc(C)c2c3ccccc3n(C)c12 [Example 210, (4,9-Dimethyl-1-propylthiocarbazol-2-yl)acetic Acid] | 2.03
17 | CSc1c(CC(=O)OC(C)(C)C)ccc2c3ccccc3n(Cc3ccc(F)cc3)c12 [Example 8, tert-Butyl [9-(4-fluorobenzyl)-1-methylthiocarbazol-2-yl]acetate] | 3.46
18 | CSc1c(C(Cc2ccccc2)C(=O)O)cc(C)c2c1[nH]c1ccccc12 (stereo not shown) [Example 15, 2-(4-Methyl-1-methylthiocarbazol-2-yl)-3-phenylpropionic acid] | 2.42
19 | CSc1c(CC(=O)O)cc(C)c2c3ccccc3n(Cc3cccc(Cl)c3)c12 [Example 145, [9-(3-Chlorobenzyl)-4-methyl-1-methylthiocarbazol-2-yl]acetic Acid] | 5.27
20 | CSc1c(CC(=O)O)cc(C(C)C)c2c3ccccc3n(Cc3ccccc3)c12 [Example 190, (9-Benzyl-4-isopropyl-1-methylthiocarbazol-2-yl)acetic Acid] | 4.78
21 | CCCSc1c(CC(=O)O)cc(C)c2c3ccccc3n(Cc3ccccc3)c12 [Example 217, (9-Benzyl-4-methyl-1-n-propylthiocarbazol-2-yl)acetic Acid] | 3.99
22 | Cc1c(CCC(=O)O)ccc2c3ccccc3n(Cc3ccccc3)c12 [Example 37, 3-(9-Benzyl-1-methylcarbazol-2-yl)propionic acid] | 2.09
23 | O=C(O)Cc1ccc2c3ccccc3n(Cc3cccc(OCc4ccccc4)c3)c2c1 [Example 165, [9-(3-Benzyloxybenzyl)carbazol-2-yl]acetic Acid] | 2.24
24 | CSc1c(CC(=O)O)cc(C)c2c3ccccc3n(CCc3ccccc3)c12 [Example 212, [4-Methyl-1-methylthio-9-(2-phenethyl)carbazol-2-yl]acetic Acid] | 4.93
25 | CSc1c(CC(=O)O)cc(C)c2c3ccccc3n(Cc3cccc(F)c3)c12 [Example 141, [9-(3-Fluorobenzyl)-4-methyl-1-methylthiocarbazol-2-yl]acetic Acid] | 3.81
26 | CCCc1cc(CC(=O)O)c(SC)c2c1c1ccccc1n2Cc1ccccc1 [Example 116, (9-Benzyl-1-methylthio-4-propylcarbazol-2-yl)acetic Acid] | 3.99
27 | CSc1c(C(Cc2ccc([N+](=O)[O-])cc2)C(=O)O)ccc2c3ccccc3n(Cc3ccc([N+](=O)[O-])cc3)c12 (stereo not shown) [Example 23, 2-[9-(4-Nitrobenzyl)-1-methylthiocarbazol-2-yl]-3-(4-nitrophenyl)propionic acid] | 2.72
28 | CSc1c(CC(=O)O)cc(C)c2c3ccccc3n(Cc3ccc(Cl)cc3)c12 [Example 180, [9-(4-Chlorobenzyl)-4-methyl-1-methylthiocarbazol-2-yl]acetic Acid] | 5.02
